“Also recorded” adds a separate entry of the source. Marks after values point to notes of the source that are not given here.
Tests used:
Type in all cases: in vivo, human
Nitric Oxide (NO) = experiment: NO in nasal mucus of patients with hyposmia before and after theophylline treatment; settings: for NO: nasal mucus, patients (12)
Source text: Table 33 in the examples illustrates NO in nasal mucus in patients treated with theophylline in various doses before and after drug treatment. NO levels in nasal mucus changed following the treatment of patients with smell loss. […] Its continual measurement during treatment of the disorders helps in monitoring efficacy of therapy. The detection of NO in nasal mucus provides a non invasive method of diagnosing various diseases related to human physiology and pathology. The methods of the present invention include treatment of diseases by modulating the concentrations of NO by use of drugs or agents. The method of treatment is preferably by nasal administration.
Table 33 illustrates NO levels in nasal mucus in patients treated with Theophylline in various doses before and after drug treatment. NO levels in nasal mucus changed following the treatment of patients with smell loss. […] Its continual measurement during treatment of these disorders helps in monitoring efficacy of therapy. The detection of NO in nasal mucus provides a non invasive method of diagnosing various diseases related to human physiology and pathology.

patients with hyposmia = experiment: Smell function (olfactory acuity) in patients with hyposmia treated with theophylline
Source text: (§1) These studies were extended to reveal levels of TNFα in nasal mucus of patients with graded loss of smell following treatment with theophylline (Table 36). Smell loss was graded such that loss was greatest in Type I hyposmia, less in Type II and still less in Type III (I>II>III). […] Following treatment which was effective in restoring smell function toward normal, levels of TNFα decreased in each patient group consistent with each increased dose of theophylline which generated a dose dependent increase in smell function—as theophylline dose increased, smell function increased and TNFα levels decreased. In Type I hyposmia TNFα decreased 40% after treatment with 400 mg theophylline and 57% after treatment 600 mg. In Type II hyposmia TNFα decreased 11% after treatment with 600 mg theophylline.

TNFR 2 = TNFR 2 in nasal mucus of patients with hyposmia treated with theophylline; settings: for TNFR2: nasal mucus, patients with hyposmia (18)
Procedure: (§2) Table 35 illustrates detection and measurement of TNFα, and soluble TNF receptors 1 and 2, moieties in the nasal mucus. TNFα, and soluble TNF receptors 1 and 2 increase in systems undergoing excessive apoptosis.
With a dose dependent increase of theophylline treatment levels of TNFR 2 in nasal mucus decreased consistent with a dose dependent increase in smell function. Levels of TNFR 2 in patients with Type I and Type II hyposmia decreased almost 50% on 600 mg theophylline consistent with their greatest return of smell function. At this highest level of theophylline levels of TNFR 2 were decreased in relationship to the decrease in smell function-TNFR 2, Type I>Type II>Type III; smell loss, Type I>Type II>Type III.

TNFα = TNFα in nasal mucus of patients with hyposmia treated with theophylline; settings: for TNF∝: nasal mucus, patients with hyposmia (24)
Source text: as §2, §1

TRAIL = TRAIL in nasal mucus of patients with hyposmia before and after treatment with theophylline; settings: for TRAIL: nasal mucus, patients with hyposmia (5)
TNFR 1 = TNFR 1 in nasal mucus of patients with hyposmia treated with theophylline; settings: for TNFR1: nasal mucus, patients with hyposmia (19)
Source text: as §2
With increased smell loss pre treatment TNFR 1 levels were increased in nasal mucus in patients with Type I hyposmia (whose smell loss was increased over that of patients with Type II hyposmia). […] The greater was the smell loss, the higher was the level of TNFR 1.

[1] = hyposmia Type I (7), theophylline 200 mg orally daily
[2] = hyposmia Type I (7), theophylline 600 mg orally daily
[3] = hyposmia Type II (10), theophylline 200 mg orally daily
[4] = hyposmia Type II (10), theophylline 400 mg orally daily
[5] = hyposmia Type II (10), theophylline 600 mg orally daily
[6] = hyposmia Type III (2), theophylline 600 mg orally daily
[7] = patients with hyposmia, stepwise increase in theophylline dose

## Cn1c(=O)c2[nH]cnc2n(C)c1=O [theophylline]
Nitric Oxide (NO); Theophylline 200 mg
  NO: 0.25 ± 0.01 µg/mL
Nitric Oxide (NO); Theophylline 400 mg
  NO: 0.40 ± 0.06 µg/mL
Nitric Oxide (NO); Theophylline 600 mg
  NO: 0.59 ± 0.16 µg/mL
Nitric Oxide (NO); patients with hyposmia, theophylline in graded doses
  NO in nasal mucus, change after treatment: increases in nasal mucus NO
Patients with hyposmia; 600 mg theophylline
  smell function: restored smell function to or toward normal
Patients with hyposmia; theophylline at various (graded) doses
  smell function: returned smell function to normal in a dose-dependent manner; also recorded: graded increases in smell function; also recorded: stepwise improvement in olfactory acuity
TNFR 2; Type I and Type II hyposmia, 600 mg theophylline
  TNFR 2 decrease in nasal mucus: ~50%
TNFR 2; [1]
  TNFR2 in nasal mucus: 3,100 ± 1,184
TNFR 2; [2]
  TNFR2 in nasal mucus: 1,491 ± 1,102
TNFR 2; [3]
  TNFR2 in nasal mucus: 1,378 ± 480^
TNFR 2; [4]
  TNFR2 in nasal mucus: 1,014 ± 272
TNFR 2; [5]
  TNFR2 in nasal mucus: 553 ± 158
TNFR 2; [6]
  TNFR2 in nasal mucus: 436 ± 443
TNFR 2; Theophylline treatment 200
  TNFR2: 1,952 ± 339
TNFR 2; Theophylline treatment 400
  TNFR2: 949 ± 180^c
TNFR 2; Theophylline treatment 600
  TNFR2: 916 ± 344
TNFR 2; [7]
  TNFR 2 in nasal mucus, change after treatment: significant dose-response decrease; also recorded: decreased
TNFα; Type I hyposmia, 400 mg theophylline
  TNFα decrease in nasal mucus: 40%
TNFα; Type I hyposmia, 600 mg theophylline
  TNFα decrease in nasal mucus: 57%
TNFα; Type II hyposmia, 600 mg theophylline
  TNFα decrease in nasal mucus: 11%
TNFα; hyposmia Type I (8), theophylline 400 mg orally daily
  TNF∝ in nasal mucus: 15.6
TNFα; hyposmia Type I (8), theophylline 600 mg orally daily
  TNF∝ in nasal mucus: 11.2 ± 4.4^
TNFα; hyposmia Type II (13), theophylline 200 mg orally daily
  TNF∝ in nasal mucus: 14.9 ± 2.5
TNFα; hyposmia Type II (13), theophylline 400 mg orally daily
  TNF∝ in nasal mucus: 11.5 ± 3.2
TNFα; hyposmia Type II (13), theophylline 600 mg orally daily
  TNF∝ in nasal mucus: 4.3 ± 0.8^a
TNFα; hyposmia Type III (3), theophylline 600 mg orally daily
  TNF∝ in nasal mucus: 1.2 ± 0.7^bc
TNFα; Theophylline treatment 200
  TNF∝: 20.0 ± 2.8 µg/mL
TNFα; Theophylline treatment 400
  TNF∝: 12.1 ± 2.1 µg/mL
TNFα; Theophylline treatment 600
  TNF∝: 7.4 ± 1.8 µg/mL
TNFα; [7]
  TNFα in nasal mucus, change after treatment: significant dose-response decrease
TRAIL; theophylline 200 mg
  TRAIL: 855 µg/mL
TRAIL; theophylline 400 mg
  TRAIL: 791 µg/mL
TRAIL; theophylline 600 mg
  TRAIL: 247 µg/mL
TRAIL; patients with hyposmia, before vs after theophylline at various doses
  TRAIL in nasal mucus, change after treatment: dose-dependent decrease
TNFR 1; [1]
  TNFR 1 in nasal mucus: 6,521 ± 1,304^c
TNFR 1; hyposmia Type I (7), theophylline 400 mg orally daily
  TNFR 1 in nasal mucus: 1,498
TNFR 1; [2]
  TNFR 1 in nasal mucus: 1,832 ± 704^a
TNFR 1; [3]
  TNFR 1 in nasal mucus: 1,462 ± 371 ^
TNFR 1; [4]
  TNFR 1 in nasal mucus: 1,087 ± 335
TNFR 1; [5]
  TNFR 1 in nasal mucus: 862 ± 335
TNFR 1; [6]
  TNFR 1 in nasal mucus: 585 ± 335
TNFR 1; Theophylline treatment 200
  TNFR1: 3,148 ± 663
TNFR 1; Theophylline treatment 400
  TNFR1: 1,146 ± 220^b
TNFR 1; Theophylline treatment 600
  TNFR1: 1,220 ± 286^ab
TNFR 1; [7]
  TNFR 1 in nasal mucus, change after treatment: significant dose-response decrease; also recorded: TNFR 1 levels decreased in Type I
